Results: ChEMBL document CHEMBL1147288, “Isolation of flavonoids and a chalcone from Helichrysum odoratissimum and synthesis of helichrysetin” (1989)
≈ marks a conversion by molar mass, not a printed value.

Legend:
[1] = tested on: Serratia marcescens; experiment: Antibacterial activity against Serratia marcescens ATCC 8100 after 24 to 48 hrs at 37 degC by liquid dilution method; type: functional
[2] = tested on: Streptococcus pyogenes; experiment: Antibacterial activity against Streptococcus pyogenes ATCC 19651 after 24 to 48 hrs at 37 degC by liquid dilution method; type: functional
[3] = tested on: Escherichia coli; experiment: Antibacterial activity against Escherichia coli ATCC 25922 after 24 to 48 hrs at 37 degC by liquid dilution method; type: functional
[4] = tested on: Candida albicans; experiment: Antifungal activity against Candida albicans CBS 562 after 24 to 48 hrs at 37 degC by liquid dilution method; type: functional
[5] = tested on: Microsporum canis; experiment: Antifungal activity against Microsporum canis after 7 days at 27 degC by liquid dilution method; type: functional
[6] = tested on: Epidermophyton floccosum; experiment: Antifungal activity against Epidermophyton floccosum after 7 days at 27 degC by liquid dilution method; type: functional
[7] = tested on: Enterobacter cloacae; experiment: Antibacterial activity against Enterobacter cloacae ATCC 23355 after 24 to 48 hrs at 37 degC by liquid dilution method; type: functional
[8] = tested on: Salmonella typhimurium; experiment: Antibacterial activity against Salmonella Typhimurium ATCC 14028 after 24 to 48 hrs at 37 degC by liquid dilution method; type: functional, Salmonella enterica subsp. enterica serovar Typhimurium; conditions: Salmonella enterica
[9] = tested on: Shigella dysenteriae; experiment: Antibacterial activity against Shigella dysenteriae after 24 to 48 hrs at 37 degC by liquid dilution method; type: functional
[10] = tested on: Klebsiella pneumoniae; experiment: Antibacterial activity against Klebsiella pneumoniae ATCC 13883 after 24 to 48 hrs at 37 degC by liquid dilution method; type: functional
[11] = tested on: Ralstonia solanacearum; experiment: Antibacterial activity against Pseudomonas solanacearum after 24 to 48 hrs at 37 degC by liquid dilution method; type: functional
[12] = tested on: Bacillus subtilis; experiment: Antibacterial activity against Bacillus subtilis ATCC 6633 after 24 to 48 hrs at 37 degC by liquid dilution method; type: functional
[13] = tested on: Proteus vulgaris; experiment: Antibacterial activity against Proteus vulgaris […] after 24 to 48 hrs at 37 degC by liquid dilution method; type: functional
[14] = tested on: Mycolicibacterium smegmatis; experiment: Antibacterial activity against Mycobacterium smegmatis ATCC 607 after 24 to 48 hrs at 37 degC by liquid dilution method; type: functional
[15] = tested on: Pseudomonas aeruginosa; experiment: Antibacterial activity against Pseudomonas aeruginosa ATCC 27853 after 24 to 48 hrs at 37 degC by liquid dilution method; type: functional
[16] = tested on: Paecilomyces; experiment: Antifungal activity against Paecilomyces after 7 days at 27 degC by liquid dilution method; type: functional
[17] = tested on: Staphylococcus aureus; experiment: Antibacterial activity against Staphylococcus aureus […] after 24 to 48 hrs at 37 degC by liquid dilution method; type: functional
[18] = tested on: Aspergillus flavus; experiment: Antifungal activity against Aspergillus flavus after 7 days at 27 degC by liquid dilution method; type: functional

| Compound | MIC [1] | MIC [2] | MIC [3] | MIC [4] | MIC [7] | MIC [8] | MIC [9] | MIC [10] | MIC [11] | MIC [12] | MIC [13] | MIC [14] | MIC [15] | MIC [17] | also measured |
| --- | --- | --- | --- | --- | --- | --- | --- | --- | --- | --- | --- | --- | --- | --- | --- |
| COc1c(-c2ccc(O)c(O)c2)oc2cc(O)cc(O)c2c1=O [3-O-METHYLQUERCETIN] | 100 µg/mL (≈ 316 µM) | 100 µg/mL (≈ 316 µM) | 100 µg/mL (≈ 316 µM) | 12.5 µg/mL (≈ 39.5 µM) | 100 µg/mL (≈ 316 µM) | 50 µg/mL (≈ 158 µM) | 100 µg/mL (≈ 316 µM) | 100 µg/mL (≈ 316 µM) | 100 µg/mL (≈ 316 µM) | 50 µg/mL (≈ 158 µM) | 100 µg/mL (≈ 316 µM) | 100 µg/mL (≈ 316 µM) | 100 µg/mL (≈ 316 µM) | 6.25 µg/mL (≈ 19.8 µM) | MIC ([5]; 168 h): 100 µg/mL (≈ 316 µM); MIC ([6]; 168 h): 100 µg/mL (≈ 316 µM); MIC ([16]; 168 h): 100 µg/mL (≈ 316 µM); MIC ([18]; 168 h): 100 µg/mL (≈ 316 µM) |
| CN(C)[C@@H]1C(O)=C(C(N)=O)C(=O)[C@@]2(O)C(O)=C3C(=O)c4c(O)cccc4[C@@](C)(O)[C@H]3C[C@@H]12.Cl [TETRACYCLINE HYDROCHLORIDE] | 25 µg/mL | 6.25 µg/mL | 6.25 µg/mL | – | 12.5 µg/mL | 12.5 µg/mL | 0.78 µg/mL | 12.5 µg/mL | 100 µg/mL | 3.12 µg/mL | 25 µg/mL | 100 µg/mL | 100 µg/mL | 100 µg/mL | – |
| NYSTATIN | – | – | – | 0.78 µg/mL | – | – | – | – | – | – | – | – | – | – | MIC [5]: 50 µg/mL; MIC [6]: 100 µg/mL; MIC [16]: 50 µg/mL; MIC [18]: 12.5 µg/mL |
